Paper PMC10449633 (Nature Chemical Biology, 2023)
pIC50: −log10 of the molar value. Several values for one entry are separate records, joined by “and”; a condition that tells them apart may be missing. Equal values may be shown once. Read-outs that look alike come from different tables or passages of the source. Square brackets hold non-standard residues; d marks the D form. Peptide text beside a SMILES is read from it. NMeTrp(1-(4-Br-benzyl)) = CN[C@@H](Cc1cn(Cc2ccc(Br)cc2)c2ccccc12)C(=O)O; Butanoyl(2R-oxy,4-CN) = N#CCC[C@@H](O)C(=O)O; Abu(4,4,4-F3) = N[C@@H](CC(F)(F)F)C(=O)O; NMeL = CN[C@@H](CC(C)C)C(=O)O; NMeA = CN[C@@H](C)C(=O)O

How the values were obtained:
Sec61 [1] = target: T1, Sec61 (Homo sapiens, UniProt P61619); experiment: signal peptide-GLuc (SP-GLuc) reporter panel, 89 constructs; type: cell-based; details: read-out: IC50
T1 construct: endogenous in cells
Source text: The heat map depicts IC50 values calculated from each SP-GLuc dose–response curve. d, Arthritis was induced in BALB/c mice with antibodies specific for type II collagen (mAb) on day 0 and endotoxin on day 3. On day 4, when the disease was present in all animals, mice were randomized and treated for 2 weeks with thrice weekly (QODx3) or weekly (QW) intravenous administration of vehicle or KZR-8445 or intraperitoneal administration of dexamethasone. Clinical scores (0–4 per paw; n = 10 per group) and body weights were followed until day 14. Data are presented as mean values ± s.d. mAb, monoclonal antibody. Source data
To investigate the effects of KZR-8445 on secretory and membrane protein biogenesis and to establish Sec61α as the relevant target, we quantified the secretion of a doxycycline-inducible Gaussia luciferase (GLuc) reporter fused to the C-terminus of two full-length pro-inflammatory cytokines, interleukin-2 (IL-2) (which contains a cleavable signal peptide) and tumor necrosis factor-alpha (TNFα) (which contains an N-terminal transmembrane anchor). […] KZR-8445 is structurally related to CT8, which discriminates among Sec61 clients based largely on their N-terminal signal peptide. […] We also directly compared KZR-8445 to mycolactone A/B, a structurally distinct and relatively client-nonselective Sec61 inhibitor[8],[25], for their ability to discriminate between vascular cell adhesion molecule (VCAM) and preprolactin (pPL) signal peptides.
Target sequence in this assay (P61619 whole entry): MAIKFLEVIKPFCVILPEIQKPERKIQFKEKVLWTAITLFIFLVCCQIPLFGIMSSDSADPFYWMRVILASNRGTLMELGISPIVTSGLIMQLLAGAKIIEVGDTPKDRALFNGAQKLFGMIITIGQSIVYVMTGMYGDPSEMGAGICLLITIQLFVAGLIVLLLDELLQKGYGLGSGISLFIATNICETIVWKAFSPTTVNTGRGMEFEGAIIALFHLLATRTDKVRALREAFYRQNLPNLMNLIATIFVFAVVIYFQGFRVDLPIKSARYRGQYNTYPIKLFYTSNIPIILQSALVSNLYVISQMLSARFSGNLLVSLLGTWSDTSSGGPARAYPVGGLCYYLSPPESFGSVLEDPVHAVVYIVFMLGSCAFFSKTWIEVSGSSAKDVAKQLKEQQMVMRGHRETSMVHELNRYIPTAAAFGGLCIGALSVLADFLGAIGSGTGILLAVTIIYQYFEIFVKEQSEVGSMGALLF
Target sequence in this assay (P60059 whole entry, further chain): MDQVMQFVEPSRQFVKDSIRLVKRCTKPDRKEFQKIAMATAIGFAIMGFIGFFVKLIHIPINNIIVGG
Target sequence in this assay (P60468 whole entry, further chain): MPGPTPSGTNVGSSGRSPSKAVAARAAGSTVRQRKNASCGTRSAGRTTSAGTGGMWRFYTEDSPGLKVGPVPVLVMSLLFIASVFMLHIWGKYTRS

Sec61 [2] = target: T1, Sec61; experiment: cell-based
Target sequence in this assay (P60059 whole entry): as the sequence (P60059 whole entry, further chain) above
Target sequence in this assay (P61619 whole entry): as the sequence (P61619 whole entry) above
Target sequence in this assay (P60468 whole entry, further chain): as the sequence (P60468 whole entry, further chain) above

Compound: CC(C)C[C@@H]1NC(=O)[C@H](Cc2cn(Cc3ccc(Br)cc3)c3ccccc23)N(C)C(=O)[C@H](CC(F)(F)F)NC(=O)[C@H](CC(C)C)N(C)C(=O)[C@H](CC(F)(F)F)NC(=O)[C@@H](CCC#N)OC(=O)[C@H](C)N(C)C1=O [KZR-0508445] (cyclo(L[NMeA][Butanoyl(2R-oxy,4-CN)][Abu(4,4,4-F3)][NMeL][Abu(4,4,4-F3)][NMeTrp(1-(4-Br-benzyl))]))
- pIC50 (Sec61 [1]; ITGB7 signal peptide-GLuc reporter): 6.64
- pIC50 (Sec61 [1]; JTB signal peptide-GLuc reporter): 7.59
- pIC50 (Sec61 [1]; KRTDAP signal peptide-GLuc reporter): 6.24
- pIC50 (Sec61 [1]; LCN6 signal peptide-GLuc reporter): 7.00
- pIC50 (Sec61 [1]; LDLR signal peptide-GLuc reporter): 6.10
- pIC50 (Sec61 [1]; LILRB2 signal peptide-GLuc reporter): 5.76
- pIC50 (Sec61 [1]; LRP8 signal peptide-GLuc reporter): 6.17
- pIC50 (Sec61 [1]; MASP2 signal peptide-GLuc reporter): 6.90
- pIC50 (Sec61 [1]; METTL7A signal peptide-GLuc reporter): 5.16
- pIC50 (Sec61 [1]; NGF signal peptide-GLuc reporter): 6.46
- pIC50 (Sec61 [1]; P3H1 signal peptide-GLuc reporter): 7.14
- pIC50 (Sec61 [1]; PCDHA4 signal peptide-GLuc reporter): 6.31
- pIC50 (Sec61 [1]; PCSK9 signal peptide-GLuc reporter): 5.89
- pIC50 (Sec61 [1]; PDCD1 signal peptide-GLuc reporter): 7.43
- pIC50 (Sec61 [1]; PRKCSH signal peptide-GLuc reporter): 6.73
- pIC50 (Sec61 [1]; PSG8 signal peptide-GLuc reporter): 6.53
- pIC50 (Sec61 [1]; SIRPA signal peptide-GLuc reporter): 5.69
- pIC50 (Sec61 [1]; SSR2 signal peptide-GLuc reporter): 6.86
- pIC50 (Sec61 [1]; STAB1 signal peptide-GLuc reporter): 6.17
- pIC50 (Sec61 [1]; SUCO signal peptide-GLuc reporter): 5.84
- pIC50 (Sec61 [1]; TGFB1 signal peptide-GLuc reporter): 5.66
- pIC50 (Sec61 [1]; TGFB2 signal peptide-GLuc reporter): 6.73
- pIC50 (Sec61 [1]; TGFBR1 signal peptide-GLuc reporter): 6.87
- pIC50 (Sec61 [1]; TIGIT signal peptide-GLuc reporter): 6.23
- pIC50 (Sec61 [1]; TMED10 signal peptide-GLuc reporter): 6.34
- pIC50 (Sec61 [1]; UCN signal peptide-GLuc reporter): 5.23
- GLuc reporter raw signal (replicates) (Sec61 [2]; HER3, Concentration 0.32): 2935000 and 2941500 and 3013900
- GLuc reporter raw signal (replicates) (Sec61 [2]; HER3, Concentration 8): 2659500 and 2842600
- GLuc reporter raw signal (replicates) (Sec61 [2]; HER3, Concentration 40): 1960600 and 2026300 and 1990500
- GLuc reporter raw signal (replicates) (Sec61 [2]; HER3, Concentration 200): 739710 and 740510 and 713180
- GLuc reporter raw signal (replicates) (Sec61 [2]; HER3, Concentration 1000): 117630 and 116630 and 119290
- GLuc reporter raw signal (replicates) (Sec61 [2]; HER3, Concentration 5000): 40623 and 42704 and 41387
- GLuc reporter raw signal (replicates) (Sec61 [2]; HER3, Concentration 25000): 40492 and 42302 and 41156
- GLuc reporter raw signal (replicates) (Sec61 [2]; IL2, Concentration 0.32): 2694100 and 2451600 and 2682900
- GLuc reporter raw signal (replicates) (Sec61 [2]; IL2, Concentration 8): 2155800 and 2012200 and 2217000
- GLuc reporter raw signal (replicates) (Sec61 [2]; IL2, Concentration 40): 1384000 and 1357800 and 1362400
- GLuc reporter raw signal (replicates) (Sec61 [2]; IL2, Concentration 200): 418080 and 431560 and 427460
- GLuc reporter raw signal (replicates) (Sec61 [2]; IL2, Concentration 1000): 69620 and 75099 and 80209
- GLuc reporter raw signal (replicates) (Sec61 [2]; IL2, Concentration 5000): 24453 and 26590 and 27282
- GLuc reporter raw signal (replicates) (Sec61 [2]; IL2, Concentration 25000): 27001 and 26299 and 26941
- GLuc reporter raw signal (replicates) (Sec61 [2]; PD1, Concentration 0.32): 1085300 and 1145000 and 1139600
- GLuc reporter raw signal (replicates) (Sec61 [2]; PD1, Concentration 8): 871620 and 904180 and 884200
- GLuc reporter raw signal (replicates) (Sec61 [2]; PD1, Concentration 40): 505580 and 506170 and 515230
- GLuc reporter raw signal (replicates) (Sec61 [2]; PD1, Concentration 200): 149930 and 159870 and 181940
- GLuc reporter raw signal (replicates) (Sec61 [2]; PD1, Concentration 1000): 25647 and 33346 and 33065
- GLuc reporter raw signal (replicates) (Sec61 [2]; PD1, Concentration 5000): 10483 and 12045 and 12165
- GLuc reporter raw signal (replicates) (Sec61 [2]; PD1, Concentration 25000): 10613 and 11144 and 10202
- GLuc reporter raw signal (replicates) (Sec61 [2]; Prolactin, Concentration 0.32): 9123600 and 9441100 and 9520300
- GLuc reporter raw signal (replicates) (Sec61 [2]; Prolactin, Concentration 40): 8673700 and 8850000 and 8412700
- GLuc reporter raw signal (replicates) (Sec61 [2]; Prolactin, Concentration 200): 7415400 and 7981400 and 8354800
- GLuc reporter raw signal (replicates) (Sec61 [2]; Prolactin, Concentration 1000): 4269000 and 4043400 and 4397300
- GLuc reporter raw signal (replicates) (Sec61 [2]; Prolactin, Concentration 5000): 1501600 and 1605300 and 3990200
- GLuc reporter raw signal (replicates) (Sec61 [2]; Prolactin, Concentration 25000): 1205700 and 1279300 and 1375600
- GLuc reporter raw signal (replicates) (Sec61 [2]; TNFa, Concentration 0.32): 190530 and 188640 and 185180
- GLuc reporter raw signal (replicates) (Sec61 [2]; TNFa, Concentration 8): 168690 and 159800
- GLuc reporter raw signal (replicates) (Sec61 [2]; TNFa, Concentration 40): 128960 and 129480 and 142690
- GLuc reporter raw signal (replicates) (Sec61 [2]; TNFa, Concentration 200): 58379 and 60837 and 65010
- GLuc reporter raw signal (replicates) (Sec61 [2]; TNFa, Concentration 1000): 21193 and 19058 and 21945
- GLuc reporter raw signal (replicates) (Sec61 [2]; TNFa, Concentration 5000): 10351 and 10241 and 10171
- GLuc reporter raw signal (replicates) (Sec61 [2]; TNFa, Concentration 25000): 9540 and 9711 and 9400
